Test results: patent US7485434B2, “Method for screening compounds for those that modulate transducers of regulated CREB activity” (The Salk Institute for Biological Studies, priority 2005, dated 2009)

How the values were obtained:
[1] = tested on: gluconeogenic genes (PEPCK, PGC-1α, G6Pase); test: Q-PCR of gluconeogenic gene expression in primary rat hepatocytes; type: cell-based; settings: primary hepatocytes
Experimental: Specifically, FIG. 17A illustrates the effect of TORC2 on induction of gluconeogenic genes (PEPCK, PGC-1α, G6Pase) by FSK (10 μM, 2 hr) in cultured primary rat hepatocytes infected with TORC2 or control GFP adenovinus as indicated.
FIGS. 18A-18H illustrate that the induction of the AMP kinase family member SIK1 by CREB during fasting attenuates the gluconeogenic program. Specifically, FIG. 18A illustrates the time course of PEPCK gene expression in primary rat hepatocytes following exposure to FSK. mRNA levels were determined by Q-PCR analysis.
FIG. 18C illustrates the effect of CHX pretreatment on induction of gluconeogenic genes (PEPCK, PGC-1α, G6Pase) by glucagon in primary rat hepatocytes. Relative mRNA levels are shown.
FIG. 19B summarizes the effect of SIK1 RNAi on gluconeogenic gene expression in primary rat hepatocytes, presenting Q-PCR analysis showing the relative induction of PEPCK, PGC-1α, and G6Pase mRNAs by glucagon in cells infected with control (US) or SIK1 RNAi expressing adenoviruses.
FIG. 20D summarizes the effect of AlCAR on expression of gluconeogenic genes (PEPCK, PGC-1α) in primary rat hepatocytes. Cells infected with mutant Ser171Ala TORC2 (171) adenovinus indicated. Treatment with AICAR and FSK is shown.
Rat primary hepatocytes were prepared from 200-300g of Sprague-Dawley rats by collagenase perfusion method as described previously (see Koo et al., 2004). […]

TORC2 [2] = test: TORC2 phosphorylation in primary rat hepatocytes (Western blot); type: cell-based; settings: primary hepatocytes; AICAR 1 mM, in the presence of FSK, 30 minutes
Excerpt: FIG. 18B illustrates the effect of CHX on levels of phospho (Ser171) TORC2 in primary rat hepatocytes treated with glucagon over a variety of time points, shown in hours. Western blot assay indicates the levels of TORC2, phospho (Ser171) TORC2 and CREB.
Specifically, FIG. 19A, top, presents a Western blot showing the effect of US and SIK1 RNAi adenoviruses on the levels of SIK1 protein in rat hepatocytes. FIG. 19A, bottom, presents a Western blot assay with nondiscriminating TORC2 antiserum, showing the effect of SIK1 RNAi adenovirus on TORC2 dephosphorylation (compare P-TORC2 and TORC2 bands) following exposure of primary rat hepatocytes to glucagon (Gluc). The arrow identifies phosphorylated TORC2.
Cells were exposed to AICAR and FSK for 30 minutes. Lower mobility bands (arrow) indicate phosphorylated TORC2 polypeptides.
Rat primary hepatocytes were prepared from 200-300g of Sprague-Dawley rats by collagenase perfusion method as described previously (see Koo et al., 2004). 1×10^6 cells were plated in 6 well plates with medium 199 (Invitrogen, Carlsbad, Calif.) supplemented by 10% FBS, 10 units/ml penicillin, 10 μg/ml streptomycin, and 10 nM dexamethasone for 3-6 hours. After attachment, cells were infected with adenoviruses for 16 hours. Subsequently, cells were maintained in medium 199 without FBS and dexamethasone for 24 hours (for cDNA expression adenoviruses) or 48 hours (for RNAi adenoviruses) and […] forskolin or 100 nM glucagon for 2 hours unless noted otherwise. For experiments with cycloheximide, 10 μg/ml cycloheximide was added 30 minutes prior to the addition of 100 nM glucagon.
Like other signaling pathways, cAMP stimulates gluconeogenic gene expression with burst-attenuation kinetics (see Sasaki et al., 1984). Following exposure of primary hepatocytes to Forskolin, PEPCK mRNA levels became maximal after 2 hours, returning to near baseline after 4 hours (see FIG. 18A). […] Consistent with this, CHX pre-treatment potentiated gluconeogenic gene expression in primary rat hepatocytes exposed to glucagon 2-3 fold (see FIG. 18C). […]

TORC2 [3] = test: Cellular localization of TORC2 in primary rat hepatocytes; type: cell-based; settings: wild-type or Ser171Ala TORC2
Experimental: FIG. 20C illustrate the effect of AICAR and SIK1 on cellular localization of wild-type or Ser171 Ala TORC2 in primary rat hepatocytes. Cells were infected with adenoviruses for HA-tagged wild-type or mutant TORC2 and SIK1 as indicated. Infected cells were exposed to FSK and AICAR for 30 minutes. TORC2 localization was examined with anti-HA antiserum. Cells were counterstained with DAP1 to visualize nuclei.
Based on its ability to promote Ser171 phosphorylation, AMPK might be expected to inhibit nuclear entry of TORC2 in cells exposed to FSK. […] Confirming the pivotal role of Ser171 in this regard, mutant Ser171Ala TORC2 remained constitutively nuclear under both conditions.

AMPK = settings: cited from earlier work

SMILES	effect on induction of PEPCK and PGC-1α genes in response to FSK [1]	phosphorylation of endogenous TORC2 (TORC2 [2])	effect on nuclear entry of TORC2 in cells exposed to FSK (TORC2 [3])	effect on AMPK (AMPK)
NC(=O)c1ncn([C@@H]2O[C@H](CO)[C@@H](O)[C@H]2O)c1N [AICAR, 5-aminoimidazole-4-carboxamide riboside]	blocked induction of PEPCK and PGC-1α genes	triggered robust phosphorylation of endogenous TORC2	inhibited nuclear entry of wild-type, but not SerAla171 TORC2	–
CN(C)C(=N)N=C(N)N [metformin]	–	–	–	activates AMPK
